This is an account of results in PubChem BioAssay (NCI).

Some test systems named below: 786-0 renal; BT-549 breast; SK-MEL-5 melanoma; SN12C renal; UACC-62 melanoma; MDA-MB-435; HS 578T breast; RPMI-8226 leukemia; UO-31 renal; SK-MEL-2 melanoma; KM12 colon; ACHN renal; CAKI-1 renal; SF-268 CNS; MALME-3M melanoma; TK-10 renal; MDA-N; M14 melanoma; NCI-H460 lung; IGROV1 ovarian.
What all share (assay): NCI tumour cell line growth inhibition, 48 h

SMILES strings stand for the structures.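 Step 1: Grow cells in 96-well plates. Step 2: Expose to compound for 48 hours at 5 concentrations. Step 3: Interpolate endpoints linearly; if unreached, use highest concentration. The concentration for full growth arrest is given as TGI.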 A value given as a limit tells only on which side of the number the result lay.

`Nc1cccc(OCC2CCCN3CCCCC23)c1` (stereo unspecified): the TGI with 786-0 renal is 29.6 µM; in the assay with BT-549 breast, 30.9 µM; in the assay on SK-MEL-5 melanoma it was 33.8 µM; in the assay with SN12C renal, 33.6 µM; in the assay on UACC-62 melanoma, 31.8 µM; with MDA-MB-435, 40.2 µM. Besides, the TGI amounted to 35.2 µM in the assay with HS 578T breast; 33.1 µM with RPMI-8226 leukemia; 75.2 µM in the assay with UO-31 renal; 44.9 µM in the assay with SK-MEL-2 melanoma; 32.4 µM with KM12 colon; 31.9 µM with ACHN renal. Further, the TGI was determined as 35.2 µM in the assay with CAKI-1 renal; 36.2 µM in the assay with SF-268 CNS; 40.4 µM in the assay with MALME-3M melanoma; 34.1 µM in the assay with TK-10 renal; 30.8 µM in the assay with MDA-N; 41.4 µM in the assay with M14 melanoma. For the same molecule, in the assay on NCI-H460 lung, the TGI stood at 36.3 µM.

For `O=c1oc2ccccc2c(O)c1C(c1ccc(-c2ccccc2)cc1)c1c(O)c2ccccc2oc1=O`, the TGI in the assay with 786-0 renal was determined as 81.3 µM; in the assay on BT-549 breast, 40.4 µM; in the assay with SK-MEL-5 melanoma, 80.9 µM; with SN12C renal it was 33.7 µM; in the assay on UACC-62 melanoma, 39.5 µM; in the assay with MDA-MB-435, 46.9 µM. In addition, the TGI in the assay with HS 578T breast amounted to 60.4 µM; in the assay on RPMI-8226 leukemia, 95.8 µM; in the assay on UO-31 renal, 31.6 µM; in the assay on SK-MEL-2 melanoma, 56.8 µM; in the assay with KM12 colon it was 38.1 µM; in the assay on ACHN renal, 60.4 µM. The TGI with CAKI-1 renal is 39.4 µM; in the assay with SF-268 CNS, 57.1 µM; in the assay on IGROV1 ovarian, greater than 100 µM; with MALME-3M melanoma, 65 µM; with TK-10 renal, greater than 100 µM; in the assay on MDA-N, 36.1 µM. Moreover, the TGI in the assay with NCI-H460 lung is 33.7 µM.

Regarding `N#CC(C#N)=c1c2ccccc2c(=C(C#N)C#N)c2ccccc12`, the TGI in the assay on 786-0 renal came to 30.6 µM; in the assay on BT-549 breast, 65 µM; with SK-MEL-5 melanoma, 31 µM; in the assay with SN12C renal it was 30.7 µM; in the assay with UACC-62 melanoma it was 28.5 µM; in the assay on MDA-MB-435, 40.1 µM. For the same molecule, the TGI with HS 578T breast is 47.7 µM; in the assay with RPMI-8226 leukemia, greater than 100 µM; in the assay with SK-MEL-2 melanoma it was 32.9 µM; in the assay with KM12 colon, 37.6 µM; with ACHN renal it was 43.3 µM; with CAKI-1 renal, 28.6 µM. Besides, the TGI in the assay on SF-268 CNS amounted to 77.5 µM; in the assay with IGROV1 ovarian it was 30.2 µM; in the assay with MDA-N, 41.5 µM; with M14 melanoma, 32.8 µM; in the assay on NCI-H460 lung, 63.6 µM.

For the molecule `COC(=O)c1c(O)ccc2c1c1c(n2Cc2ccccc2OC)C(=O)c2ccccc2C1=O`, the TGI in the assay on 786-0 renal was 24 µM; in the assay with BT-549 breast, 32.1 µM; in the assay with SK-MEL-5 melanoma, 25.8 µM; in the assay with SN12C renal, 25.4 µM; in the assay on MDA-MB-435, 27.7 µM; with HS 578T breast, 53.2 µM. In addition, the TGI with RPMI-8226 leukemia came out at 10.5 µM; in the assay on UO-31 renal, 36.9 µM; with SK-MEL-2 melanoma, 32.5 µM; in the assay with KM12 colon, 23.4 µM; in the assay on ACHN renal, 29.7 µM; in the assay on CAKI-1 renal it was 37.9 µM. The TGI stood at 29.7 µM in the assay on SF-268 CNS; 28.3 µM in the assay on IGROV1 ovarian; 40.5 µM in the assay on MALME-3M melanoma; 65 µM in the assay on TK-10 renal; 37.9 µM with MDA-N; 22.6 µM in the assay on M14 melanoma. Further, in the assay on NCI-H460 lung, the TGI was 16.6 µM.

Regarding `C=CCOCn1cc(F)c(=O)[nH]c1=O`, the TGI with 786-0 renal, in the assay with BT-549 breast, in the assay on SK-MEL-5 melanoma, in the assay on SN12C renal, in the assay on UACC-62 melanoma and in the assay with MDA-MB-435 was greater than 100 µM in each case. Besides, the TGI in the assay on HS 578T breast, with RPMI-8226 leukemia, in the assay with UO-31 renal, in the assay with KM12 colon, in the assay with ACHN renal and with CAKI-1 renal was greater than 100 µM each time. The TGI with SF-268 CNS, in the assay on IGROV1 ovarian, in the assay on MALME-3M melanoma, in the assay with TK-10 renal, with MDA-N and with M14 melanoma was greater than 100 µM throughout. For the same molecule, the TGI with NCI-H460 lung is greater than 100 µM.

For `c1ccc(-c2c(-c3cccs3)[nH]c(-c3cccs3)c2-c2ccccn2)nc1`, the TGI in the assay with 786-0 renal came out at 53 µM; in the assay on BT-549 breast, 41.5 µM; in the assay with SK-MEL-5 melanoma it was 26.6 µM; with SN12C renal it was 67.9 µM; with UACC-62 melanoma it was 35.6 µM; in the assay with MDA-MB-435 it was 43.6 µM. The TGI in the assay with HS 578T breast is 59.7 µM; in the assay on RPMI-8226 leukemia, 68.5 µM; with UO-31 renal, 57.3 µM; in the assay with KM12 colon, 62.6 µM; in the assay with ACHN renal, greater than 100 µM; in the assay on CAKI-1 renal, greater than 100 µM. Further, the TGI was 49.8 µM with SF-268 CNS; 59.3 µM in the assay on IGROV1 ovarian; 77.1 µM in the assay on MALME-3M melanoma; greater than 100 µM in the assay with TK-10 renal; greater than 100 µM in the assay on MDA-N; 40.7 µM in the assay with M14 melanoma. In the assay with NCI-H460 lung, this molecule had a TGI of 63.5 µM.

As to `CN(/N=C/c1ccccn1)C1=NCCCN1`, the TGI in the assay with 786-0 renal, with BT-549 breast, in the assay with SK-MEL-5 melanoma, in the assay with UACC-62 melanoma, with MDA-MB-435 and in the assay on HS 578T breast was greater than 100 µM throughout. The TGI in the assay with RPMI-8226 leukemia, with UO-31 renal, in the assay with SK-MEL-2 melanoma, in the assay with KM12 colon, in the assay on ACHN renal and in the assay on CAKI-1 renal was greater than 100 µM throughout. The TGI in the assay on SF-268 CNS, in the assay on IGROV1 ovarian, with MALME-3M melanoma, in the assay with TK-10 renal, in the assay with MDA-N and with M14 melanoma was greater than 100 µM throughout. The molecule further gave a TGI in the assay on NCI-H460 lung greater than 100 µM.
